We go through 20 compounds from the supplement of paper PMC11368000.

Each structure is given as a SMILES string.

The subject of the first experiment is 1309 (donor line of iPSC-derived cardiomyocytes). Description: POD (EC05) for increase in Ca2+ transient decay-to-rise ratio (QT prolongation) vs vehicle; higher = less potent (higher point of departure). Conditions: exposure time: 90 min. As to the method:
(§1)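 Human iPSC-derived cardiomyocytes from 16 donors were exposed for 90 min at 37 °C to each PFAS at 0.1, 1, 10 and 100 µM in 0.5% DMSO, 384-well plates. Kinetic Ca2+ flux (FLIPR) and Hoechst nuclei counts were normalised to vehicle wells and fitted with a hierarchical Bayesian Hill model to give donor-specific PODs: EC05 for beat-rate increase or decrease and for decay-to-rise ratio increase (QT proxy), EC95 for peak-frequency loss (asystole), EC10 for total cell number loss. 0.03 µM is the lower bound.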
Regarding `O=C(O)C=CC(F)(C(F)(F)F)C(F)(F)F` [3-(Perfluoroisopropyl)-2-propenoic_acid], the POD vs vehicle was greater than 100 µM.
In the case of `O=C(O)CCC(F)(F)C(F)(F)C(F)(F)C(F)(F)C(F)(F)C(F)(F)C(F)(F)F` [3-Perfluoroheptylpropanoic_acid], the POD vs vehicle was greater than 100 µM.
`O=C(O)CCC(F)(F)C(F)(F)C(F)(F)F` [3:3 Fluorotelomer carboxylic acid]: the POD vs vehicle is greater than 100 µM.
As for `O=C(CC(=O)C(F)(F)C(F)(F)F)C(F)(F)F` [3H,3H-Perfluoro-2,4-hexanedione], the POD vs vehicle is greater than 100 µM.
Same read-out and setting: as for `OCCC(F)(F)C(F)(F)C(F)(F)C(F)(F)F` [4:2 Fluorotelomer alcohol], the figure is greater than 100 µM.
`O=S(=O)(O)CCC(F)(F)C(F)(F)C(F)(F)C(F)(F)F` [4:2 Fluorotelomer sulfonic acid]: the POD vs vehicle was greater than 100 µM.
On the same count and under the same terms, to `OCC(F)(F)C(F)(F)C(F)(F)C(F)(F)C(F)(F)C(F)(F)F` [6:1 Fluorotelomer alcohol] belongs greater than 100 µM; to `OCCC(F)(F)C(F)(F)C(F)(F)C(F)(F)C(F)(F)C(F)(F)F` [6:2 Fluorotelomer alcohol], greater than 100 µM; to `O=S(=O)(O)CCC(F)(F)C(F)(F)C(F)(F)C(F)(F)C(F)(F)C(F)(F)F` [6:2 Fluorotelomer sulfonic acid], greater than 100 µM.
Turning to `OCCC(F)(F)C(F)(F)C(F)(F)C(F)(F)C(F)(F)C(F)(F)C(F)(F)C(F)(F)F` [8:2 Fluorotelomer alcohol], the POD vs vehicle was greater than 100 µM.
Take `CN(CCO)S(=O)(=O)C(F)(F)C(F)(F)C(F)(F)C(F)(F)C(F)(F)C(F)(F)C(F)(F)C(F)(F)F` [N-Methyl-N-(2-hydroxyethyl)perfluorooctanesulfonamide]: the POD vs vehicle was greater than 100 µM.

The next experiment deals with 1434 (donor line of iPSC-derived cardiomyocytes). The description is as above. Conditions: exposure time: 90 min. On the procedure: as §1
With `NC(=O)C(F)(F)C(F)(F)C(F)(F)C(F)F`, the POD vs vehicle was 0.543 µM.
The same measure, in the same setting: as for `OCC(O)CC(F)(F)C(F)(F)C(F)(F)C(F)(F)C(F)(F)C(F)(F)C(F)(F)C(F)(F)F` (stereo not given) [1-(Perfluorofluorooctyl)propane-2,3-diol], the figure is greater than 100 µM; as for `CC(O)C(F)(F)C(F)(F)F` (stereo not given) [1-Pentafluoroethylethanol], greater than 100 µM; as for `OCC(F)(F)C(F)(F)C(F)(F)C(F)F` [1H,1H,5H-Perfluoropentanol], greater than 100 µM.
Still for that read-out and setting: to `O=S(=O)(OCC(F)(F)F)C(F)(F)C(F)(F)C(F)(F)C(F)(F)F` [2,2,2-Trifluoroethyl_perfluorobutanesulfonate] belongs greater than 100 µM; to `O=C(O)C(F)(F)C(F)(F)C(F)F` [2,2,3,3,4,4-Hexafluorobutanoic_acid], greater than 100 µM.
On the same count and under the same terms, as for `NC(O)(C(F)(F)F)C(F)(F)F` [2-Aminohexafluoropropan-2-ol], the figure is greater than 100 µM; as for `O=C(O)CCC(F)(F)C(F)(F)C(F)(F)C(F)(F)C(F)(F)F` [2H,2H,3H,3H-Perfluorooctanoic_acid], greater than 100 µM; as for `O=C(O)C=C(C(F)(F)F)C(F)(F)F` [3,3-Bis(trifluoromethyl)-2-propenoic_acid], greater than 100 µM.
With `O=C(O)C=CC(F)(C(F)(F)F)C(F)(F)F` [3-(Perfluoroisopropyl)-2-propenoic_acid], the POD vs vehicle was greater than 100 µM.
On the same count and under the same terms, as for `O=C(O)CCC(F)(F)C(F)(F)C(F)(F)C(F)(F)C(F)(F)C(F)(F)C(F)(F)F` [3-Perfluoroheptylpropanoic_acid], the figure is greater than 100 µM; as for `O=C(O)CCC(F)(F)C(F)(F)C(F)(F)F` [3:3 Fluorotelomer carboxylic acid], greater than 100 µM.
`O=C(CC(=O)C(F)(F)C(F)(F)F)C(F)(F)F` [3H,3H-Perfluoro-2,4-hexanedione]: the POD vs vehicle was greater than 100 µM.
In the case of `OCCC(F)(F)C(F)(F)C(F)(F)C(F)(F)F` [4:2 Fluorotelomer alcohol], the POD vs vehicle is greater than 100 µM.
Regarding `O=S(=O)(O)CCC(F)(F)C(F)(F)C(F)(F)C(F)(F)F` [4:2 Fluorotelomer sulfonic acid], the POD vs vehicle was greater than 100 µM.
Turning to `OCC(F)(F)C(F)(F)C(F)(F)C(F)(F)C(F)(F)C(F)(F)F` [6:1 Fluorotelomer alcohol], the POD vs vehicle is greater than 100 µM.
As for `OCCC(F)(F)C(F)(F)C(F)(F)C(F)(F)C(F)(F)C(F)(F)F` [6:2 Fluorotelomer alcohol], the POD vs vehicle is greater than 100 µM.
Regarding `O=S(=O)(O)CCC(F)(F)C(F)(F)C(F)(F)C(F)(F)C(F)(F)C(F)(F)F` [6:2 Fluorotelomer sulfonic acid], the POD vs vehicle is greater than 100 µM.
For `OCCC(F)(F)C(F)(F)C(F)(F)C(F)(F)C(F)(F)C(F)(F)C(F)(F)C(F)(F)F` [8:2 Fluorotelomer alcohol], the POD vs vehicle was greater than 100 µM.
Same read-out and setting: to `CN(CCO)S(=O)(=O)C(F)(F)C(F)(F)C(F)(F)C(F)(F)C(F)(F)C(F)(F)C(F)(F)C(F)(F)F` [N-Methyl-N-(2-hydroxyethyl)perfluorooctanesulfonamide] belongs greater than 100 µM.

A further experiment deals with 1516 (donor line of iPSC-derived cardiomyocytes). The experiment is described as follows: POD (EC95) for loss of peak frequency (asystole) vs vehicle; higher = less potent (higher point of departure). Conditions: exposure time: 90 min. On the procedure: as §1
Turning to `NC(=O)C(F)(F)C(F)(F)C(F)(F)C(F)F`, the POD vs vehicle was greater than 100 µM.
`OCC(O)CC(F)(F)C(F)(F)C(F)(F)C(F)(F)C(F)(F)C(F)(F)C(F)(F)C(F)(F)F` (stereo not given) [1-(Perfluorofluorooctyl)propane-2,3-diol]: the POD vs vehicle was greater than 100 µM.
Still for that read-out and setting: as for `CC(O)C(F)(F)C(F)(F)F` (stereo not given) [1-Pentafluoroethylethanol], the figure is greater than 100 µM.
On to `OCC(F)(F)C(F)(F)C(F)(F)C(F)F` [1H,1H,5H-Perfluoropentanol], for which the POD vs vehicle is greater than 100 µM.
`O=S(=O)(OCC(F)(F)F)C(F)(F)C(F)(F)C(F)(F)C(F)(F)F` [2,2,2-Trifluoroethyl_perfluorobutanesulfonate] gave a POD vs vehicle greater than 100 µM.
Consider `O=C(O)C(F)(F)C(F)(F)C(F)F` [2,2,3,3,4,4-Hexafluorobutanoic_acid], for which the POD vs vehicle was greater than 100 µM.
As to `NC(O)(C(F)(F)F)C(F)(F)F` [2-Aminohexafluoropropan-2-ol], the POD vs vehicle is greater than 100 µM.
The same measure, in the same setting: as for `O=C(O)CCC(F)(F)C(F)(F)C(F)(F)C(F)(F)C(F)(F)F` [2H,2H,3H,3H-Perfluorooctanoic_acid], the figure is 75.1 µM.
The compound `O=C(O)C=C(C(F)(F)F)C(F)(F)F` [3,3-Bis(trifluoromethyl)-2-propenoic_acid] showed a POD vs vehicle greater than 100 µM.
`O=C(O)C=CC(F)(C(F)(F)F)C(F)(F)F` [3-(Perfluoroisopropyl)-2-propenoic_acid]: the POD vs vehicle was greater than 100 µM.
Regarding `O=C(O)CCC(F)(F)C(F)(F)C(F)(F)C(F)(F)C(F)(F)C(F)(F)C(F)(F)F` [3-Perfluoroheptylpropanoic_acid], the POD vs vehicle was greater than 100 µM.
Take `O=C(O)CCC(F)(F)C(F)(F)C(F)(F)F` [3:3 Fluorotelomer carboxylic acid]: the POD vs vehicle is greater than 100 µM.
The same measure, in the same setting: as for `O=C(CC(=O)C(F)(F)C(F)(F)F)C(F)(F)F` [3H,3H-Perfluoro-2,4-hexanedione], the figure is greater than 100 µM; as for `OCCC(F)(F)C(F)(F)C(F)(F)C(F)(F)F` [4:2 Fluorotelomer alcohol], greater than 100 µM; as for `O=S(=O)(O)CCC(F)(F)C(F)(F)C(F)(F)C(F)(F)F` [4:2 Fluorotelomer sulfonic acid], greater than 100 µM.
Consider `OCC(F)(F)C(F)(F)C(F)(F)C(F)(F)C(F)(F)C(F)(F)F` [6:1 Fluorotelomer alcohol], for which the POD vs vehicle is greater than 100 µM.
Consider `OCCC(F)(F)C(F)(F)C(F)(F)C(F)(F)C(F)(F)C(F)(F)F` [6:2 Fluorotelomer alcohol], for which the POD vs vehicle was greater than 100 µM.
Still for that read-out and setting: as for `O=S(=O)(O)CCC(F)(F)C(F)(F)C(F)(F)C(F)(F)C(F)(F)C(F)(F)F` [6:2 Fluorotelomer sulfonic acid], the figure is greater than 100 µM.
As for `OCCC(F)(F)C(F)(F)C(F)(F)C(F)(F)C(F)(F)C(F)(F)C(F)(F)C(F)(F)F` [8:2 Fluorotelomer alcohol], the POD vs vehicle is greater than 100 µM.
